Experimental findings from patent US8933107B2, “Pesticide thiazolyloxy substituted phenylamidine derivatives” (Bayer Cropscience AG, priority 2005, dated 2015) are described below.

What is called chromatographic logP is lipophilicity estimated from chromatographic retention. Read a low chromatographic logP as lower lipophilicity.

Data set [1] in a line: physchem. Particulars: reversed-phase HPLC column (C 18).
Data set [2] deals with Erysiphe graminis f. sp. hordei. The data set can be described thus: In vivo preventive test on Erysiphe gramini (powdery mildew on barley). The settings on record: Blumeria graminis, 168 h, 1000 ppm of active ingredient, evaluated 7 days after inoculation, read-out: efficacy.
Data set [3] concerns Puccinia recondita f. Sp. tritici. Description: In vivo preventive test on Puccinia recondita f. Sp. tritici (wheat brown rust). Particulars: topical, 240 h, 1000 ppm of active ingredient, evaluated 10 days after inoculation, read-out: efficacy.
In data set [4] the test system is Sphaerotheca fuliginea. The data set can be described thus: In vivo protective test on Sphaerotheca fuliginea (cucumbers). The settings on record: Podosphaera fuliginea, 168 h, 100 ppm of active ingredient, evaluated 7 days after inoculation, read-out: efficacy.
The test system of data set [5] is Podosphaera leucotricha. Description: In vivo protective test on Podosphaera leucotricha (apples). The settings on record: topical, 240 h, 100 ppm of active ingredient, evaluated 10 days after inoculation, read-out: efficacy.
The test system of data set [6] is Alternaria solani. The data set can be described thus: In vivo protective test on Alternaria solani (leaf spot of tomato). The settings on record: 168 h, 500 ppm of active ingredient, evaluated 7 days after inoculation, read-out: efficacy.
Data set [7] has as its system Heliotis virescens. Description: Heliotis virescens test (HELIVI spray application). Particulars: soybean leaf sections, concentration and time not stated. The data set is classed as in vivo.

Each structure is given as a SMILES string. A value given as a limit tells only on which side of the number the result lay.

With `CCN(C)/C=N/c1cc(C)c(Oc2nc(Cl)c(Br)s2)cc1C` [Compound 1.6], the chromatographic logP in data set [1] stood at 2. For the same compound, the pest or weed control at 1000 ppm in data set [2] and in data set [3] was at least 70% each time. Further, the pest or weed control at 100 ppm in data set [4] and in data set [5] was at least 70% in each case.

In the case of `Cc1cc(Oc2nc(C(C)C)c(Cl)s2)c(C)cc1/N=C/N(C)C(C)C` [Compound 1.9], the pest or weed control at 500 ppm in data set [6] is at least 70%. The compound also displayed a chromatographic logP in data set [1] of 2.57. In addition, the pest or weed control at 1000 ppm in data set [2] and in data set [3] was at least 70% each time. Also, the pest or weed control at 100 ppm in data set [4] and in data set [5] was at least 70% throughout.

Consider `Cc1cc(Oc2nc(Cl)c(Cl)s2)c(C)cc1/N=C/N(C)C(C)C` [Compound 1.3], for which the pest or weed control at 500 ppm in data set [6] is at least 70%. The compound further came in with a chromatographic logP in data set [1] of 2.18. Further, the pest or weed control at 1000 ppm in data set [2] and in data set [3] was at least 70% each time. The pest or weed control at 100 ppm in data set [4] and in data set [5] was at least 70% in each case.

As to `Cc1cc(Oc2nc(Cl)c(C)s2)c(C)cc1/N=C/N(C)C(C)C` [Compound 1.23], in data set [1], the chromatographic logP is 1.94. For the same compound, the pest or weed control at 1000 ppm in data set [2] and in data set [3] was at least 70% throughout. In addition, in data set [7], the “activity (mortality of eggs)” value is listed as “good activity”.

Compound `Cc1cc(Oc2nc(C(F)(F)F)c(Cl)s2)c(C)cc1/N=C/N(C)C(C)C` [Compound 1.10] gave a chromatographic logP in data set [1] of 2.29. Also, the pest or weed control at 1000 ppm in data set [2] and in data set [3] was at least 70% each time. The pest or weed control at 100 ppm in data set [4] and in data set [5] was at least 70% each time.

Regarding `CCN(C)/C=N/c1cc(C)c(Oc2nc(C(C)C)ns2)cc1C` [Compound 2.3], the pest or weed control at 500 ppm in data set [6] is at least 70%. Besides, the chromatographic logP in data set [1] worked out at 1.74. Besides, the pest or weed control at 1000 ppm in data set [2] and in data set [3] was at least 70% throughout. The pest or weed control at 100 ppm in data set [4] and in data set [5] was at least 70% each time.

As for `CCN(C)/C=N/c1cc(C)c(Oc2nc(C(C)(C)C)c(Cl)s2)cc1C` [Compound 1.4], the pest or weed control at 500 ppm in data set [6] is at least 70%. Moreover, the chromatographic logP in data set [1] was 2.76. Also, the pest or weed control at 1000 ppm in data set [2] and in data set [3] was at least 70% throughout. Moreover, the pest or weed control at 100 ppm in data set [4] and in data set [5] was at least 70% in each case.

Consider `CCN(C)/C=N/c1cc(C)c(Oc2nc(C)c(Cl)s2)cc1C` [Compound 1.12], for which the pest or weed control at 500 ppm in data set [6] was at least 70%. In data set [1], this compound came in with a chromatographic logP of 1.98. Moreover, the pest or weed control at 1000 ppm in data set [2] and in data set [3] was at least 70% each time. The pest or weed control at 100 ppm in data set [4] and in data set [5] was at least 70% in each case.

In the case of `CCN(C)/C=N/c1cc(C)c(Oc2nc(Cl)c(Cl)s2)cc1C` [Compound 1.1, N′-{4-[(4,5-dichloro-1,3-thiazol-2-yl)oxy]-2,5-dimethylphenyl}-N-ethyl-N-methylimidoformamide], the pest or weed control at 500 ppm in data set [6] was at least 70%. Also, the chromatographic logP stood at 2.12 in data set [1] and 2.04 in data set [1] (pH 2.3). Further, the pest or weed control at 1000 ppm in data set [2] and in data set [3] was at least 70% throughout. In addition, the pest or weed control at 100 ppm in data set [4] and in data set [5] was at least 70% throughout.

In the case of `Cc1cc(Oc2nc(Cl)c(Br)s2)c(C)cc1/N=C/N(C)C(C)C` [Compound 1.11], the chromatographic logP in data set [1] was 2.22. Also, the pest or weed control at 1000 ppm in data set [2] and in data set [3] was at least 70% throughout. In addition, the pest or weed control at 100 ppm in data set [4] and in data set [5] was at least 70% in each case. In addition, the “activity (mortality of eggs)” value in data set [7] is “good activity”.

For the compound `CCN(C)/C=N/c1cc(C)c(Oc2nc(C(F)(F)F)c(Cl)s2)cc1C` [Compound 1.5], the pest or weed control at 500 ppm in data set [6] is at least 70%. The chromatographic logP in data set [1] turned out to be 2.15. In addition, the pest or weed control at 1000 ppm in data set [2] and in data set [3] was at least 70% throughout. Besides, the pest or weed control at 100 ppm in data set [4] and in data set [5] was at least 70% throughout.

In turn, `CCN(C)/C=N/c1cc(C)c(Oc2nc(Cl)cs2)cc1C` [Compound 1.18] gave a chromatographic logP in data set [1] of 1.6. The pest or weed control at 1000 ppm in data set [2] and in data set [3] was at least 70% in each case. The pest or weed control at 100 ppm in data set [4] and in data set [5] was at least 70% throughout.

In the case of `CCN(C)/C=N/c1cc(C)c(Oc2nc(Cl)c(C)s2)cc1C` [Compound 1.17], in data set [6], the pest or weed control at 500 ppm was at least 70%. The chromatographic logP in data set [1] worked out at 1.8. In addition, the pest or weed control at 1000 ppm in data set [2] and in data set [3] was at least 70% throughout. Also, the pest or weed control at 100 ppm in data set [5] was at least 70%.

As for `CCN(C)/C=N/c1cc(C)c(Oc2ncc(C(C)(C)C)s2)cc1C` [Compound 1.74], the pest or weed control at 500 ppm in data set [6] was at least 70%. In data set [1], this compound came in with a chromatographic logP of 2.18. Besides, the pest or weed control at 1000 ppm in data set [3] was at least 70%. In addition, in data set [5], the pest or weed control at 100 ppm was at least 70%.
